In patent US20230226065A1, “ANTI-INFLAMMATORY COMPOSITIONS, METHODS AND USES THEREOF” (COMVITA LIMITED, priority 2020, published 2023):

What was measured:
[1] = tested on: inactive MMP-9 (pro-MMP-9); test: Gelatin gel zymography, inactive MMP-9 band; format: biochemical; details: inactive MMP-9 (~47 kDa band); densitometry vs no inhibitor; n=5
Description: (§1) Novex™ 10% Zymogram Plus (Gelatin) Protein Gels (15 wells) were purchased from Thermo Fisher Scientific Inc. (Auckland, New Zealand). All chemicals required for the zymogram analysis were also purchased from Thermo Fisher, these include Novex™ Sharp Pre-stained Protein Standard, Novex Tris-Glycine SDS sample buffer, Novex Tris-Glycine SDS running buffer, Novex Zymogram renaturing buffer and Novex Zymogram developing buffer. […] Gelatin gel zymography was performed as an independent technique to confirm the inhibition of MMP-9 from 3,6,7-trimethyllumazine. This technique uses a non-reducing SDS-PAGE (sodium dodecyl sulfate polyacrylamide gel electrophoresis) gel embedded with gelatin. Proteins are migrated and separated during electrophoresis. The SDS is removed after electrophoresis and the gel is then incubated with essential cofactors required for enzymatic activity. The embedded gelatin can be digested by MMP-9, resulting in clear bands on a dark blue background after staining with Coomassie blue dyes. The gelatinase activity is represented by band densitometry, which can be assessed with image analysis software. […]
(§2) After incubation, the gelatin gel was rinsed with water for three times (5 min each) under gentle agitation. […] MMP-9 activities were analysed using densitometry on ImageJ Version 1.52a. […]

[2] = tested on: differentiated THP-1 cells; test: WST-1 cell viability, differentiated THP-1 cells; format: cell-based; details: for cell death: human
Description: To measure cytotoxicity of 3,6,7-trimethyllumazine at different doses, 2-(4-Iodophenyl)-3-(4-nitrophenyl)-5-(2,4-disulfophenyl)-2H-tetrazolium, monosodium salt (WST-1) (Roche, 11644807001, Lot #45255800) was used. WST-1 is a cell proliferation reagent for measurement of cellular proliferation, viability, and cytotoxicity using a colorimetric assay (Gosert (2011); Peskin (2000)).
After incubation, a portion of the culture media was taken and stored for MMP-9 secretion testing using ELISA. The remaining media in the plates was then removed and 100 μl of WST-1 in RPMI-1640 media (1:10 dilution) was added to each cell well and incubated at 37° C. for a further 4 hours. The plates were then read using a plate reader at wavelength of 450 nm. Cytotoxicity was calculated as follows:
[WST-1 score for each sample/WST-1 score for the control]×100
A WST-1 score below 80% will be considered cytotoxic.

[3] = tested on: COX-2 protein expression in THP-1 cells; test: LPS-induced COX-2 protein expression in THP-1 cells (Western blot); format: cell-based, human; details: for COX-2 Relative expression (mean ± SEM): LPS 24 hours, LPS positive control 1.26 ± 0.11, n=6
Description: THP-1 cells were seeded in 12-well tissue-culture treated plates at a density of 500,000 cells/well in growth media overnight. […] Cells were washed with cold PBS and lysed in RIPA buffer containing protease inhibitors (Sigma P2714) for 15 minutes on ice. Debris was pelleted by centrifugation at 14,000×g for 15 min and lysate supernatants were frozen at −80° C. for later analysis by western blot.
Western blots for semi-quantitative COX-2 (Abcam ab188183) protein expression were conducted on THP-1 monocyte cells lysed with RIPA buffer containing protease inhibitors. A total of 10 μg protein was loaded onto precast 10% acrylamide gels (BioRad, NZ) then separated by electrophoresis at 120 V at room temperature. […] The membranes were then incubated with the primary antibody that correspond to the protein of interest for 1 h. […] Western blot images were captured with an Amersham™ Imager 600 (GE Healthcare, Chicago, Ill., USA) and densitometry measurement of protein bands was analysed with the accompanying image analysis software.
For analysis of Western blots, densitometry measurements from the proteins of interest were normalised to the densitometry of p-actin for each sample. […] The significance level was set at p≤0.05.

[4] = tested on: active MMP-9; test: Gelatin gel zymography, active MMP-9 band; format: biochemical; details: active MMP-9 (~37 kDa band); densitometry vs no inhibitor; n=5
Description: as §1, §2

Cc1nc2[nH]c(=O)n(C)c(=O)c2nc1C [3,6,7-trimethyllumazine]
percentage inhibition of gelatinase activity [1]: 17%
WST-1 score (cell viability) ([2]; 40 μg/mL, below 80% considered cytotoxic): 79.8%
cell death ([2]; 30 μg/mL): 13%
cell death ([2]; 40 μg/mL): 20%
COX-2 Relative expression (mean ± SEM) ([3]; 12.5 μg/mL): 0.98 ± 0.05
COX-2 Relative expression (mean ± SEM) ([3]; 25 μg/mL): 0.99 ± 0.07
reduction in COX-2 protein compared to the LPS treatment ([3]; 50 ug/mL): significant reduction
COX-2 Relative expression (mean ± SEM) ([3]; 50 μg/mL): 0.90 ± 0.09
COX-2 Relative expression (mean ± SEM) ([3]; 100 μg/mL): 0.96 ± 0.13
reduction of COX-2 protein expression compared to LPS-stimulated cells ([3]; all doses tested, 12.5-100 μg/mL): 16-23%
percentage inhibition of gelatinase activity [4]: 31%
